This note sets out measurements from EPA's ToxValDB 9.5.

Structures are written as SMILES. Converted amounts (≈) assume the structure as drawn. “And” between values parts separate entries of the source, which are not always exact repeats. Identical values can stand only once.

Usually LD50 stands for the dose at which mortality reaches 50%. Higher therefore signals lower toxicity. By NOAEL is commonly meant the highest tested level that showed no adverse finding. For orientation: LOAEL means the lowest dose or exposure tested at which an adverse effect was seen.

Data set [1] has as its system Oryctolagus sp. The settings on record: for LD50: dermal; for NOAEL: gavage.
The test system of data set [2] is Rattus norvegicus. The settings on record: for LC50 / LD50: acute.
Data set [3] relates to Mus musculus. The settings on record: for LC50 / LD50: acute; for LD50: injection.
Data set [4] deals with Rattus norvegicus. The settings on record: chronic; duration: 2 years; oral; diet; M/F; neurotoxicity.
[5] abbreviates: chronic, duration: 104 weeks, oral, diet, CDA.
Where [6] appears, read: subchronic, duration: 90 days, oral, gavage, CDA Sprague-Dawley.
The mark [7] stands for this setting: chronic, duration: 693 days, oral, diet, Sprague-Dawley.
Where [8] appears, read: reproduction developmental, duration: 94 days, oral, diet, Sprague-Dawley, generation: F0.
The mark [9] stands for this setting: subchronic, duration: 13 weeks, oral, diet, Sprague-Dawley.
Where [10] appears, read: reproduction developmental, duration: 5 days, inhalation, CD1, generation: F0.

As for `CC1(C)NC(=O)NC1=O` [5,5-Dimethylhydantoin], the LD50 in data set [1] (acute, New Zealand) was more than 20000 mg/kg; in data set [1] (acute, occlusive, New Zealand), more than 3000 mg/kg; in data set [2] (oral, gavage, Sprague-Dawley) it was more than 5000 mg/kg. In addition, the NOAEL in data set [1] (developmental, duration: 13 days, oral, New Zealand) was 100 mg/kg-day; in data set [1] (reproduction developmental, duration: 13 days, oral, F, New Zealand), 500 mg/kg-day; in data set [2] (chronic, duration: 24 months, oral, diet, Crl:CDABR), more than 1000 mg/kg-day; in data set [2] (setting [5]), 1000 mg/kg-day; in data set [2] (developmental, duration: 14 days, oral, gavage, Sprague-Dawley COBS CD), not above 2000 mg/kg-day; in data set [2] (developmental, oral, gavage, Crl:CD(SD) BR) it was 250 mg/kg-day. Moreover, the no-observed-adverse-effect level (NOAEL) in data set [2] (reproduction developmental, duration: 10 weeks, oral, diet, CD, generation: F0) amounted to 20000 ppm; in data set [2] (reproduction developmental, duration: 10 weeks, oral, diet, CD, generation: F1), 20000 ppm; in data set [2] (reproduction developmental, oral, gavage, Crl:CD(SD) BR, generation: F0) it was 1000 mg/kg-day; in data set [2] (reproduction developmental, oral, gavage, F, Crl:CD(SD) BR), 1000 mg/kg-day; in data set [2] (subchronic, duration: 13 weeks, oral, gavage, Sprague-Dawley (CRl: CDBR)), 1000 mg/kg-day; in data set [2] (setting [6]), 2000 mg/kg-day. The compound also showed a no-observed-adverse-effect level (NOAEL) in data set [3] (short-term, duration: 28 days, oral, diet, F, CD1) of 50000 ppm. The compound also displayed an LC50 in data set [2] (inhalation) of more than 14.7 µg/mL. Besides, the lowest-observed-adverse-effect level (LOAEL) in data set [2] (setting [5]) is more than 1000 mg/kg-day; in data set [2] (setting [6]), 5000 mg/kg-day; in data set [3] (subchronic, duration: 13 weeks, oral, diet, CD1), 9850 mg/kg-day.
Turning to `O=c1n(CC2CO2)c(=O)n(CC2CO2)c(=O)n1CC1CO1` (stereo unspecified) [Tris(2,3-epoxypropyl)isocyanurate], the LC50 in data set [2] (Inhalation, TIF: RAIF (SPF)) was more than 300 mg/m3; in data set [2] (Inhalation, Tif.RAIF (SPF)) it was 650 mg/m3; in data set [2] (inhalation, particle, Wistar), more than 4.16 µg/mL; in data set [3] (inhalation, particle, CD1) it was 2 µg/mL (≈ 6.73 µM). Also, the LD50 in data set [2] (dermal, Sprague-Dawley) was more than 3100 mg/kg; in data set [2] (dermal, semiocclusive, Sprague-Dawley), more than 2000 mg/kg; in data set [2] (dermal, semiocclusive, TIF. RAIF (SPF)) it was more than 2000 mg/kg; in data set [2] (oral, gavage, Sprague-Dawley) it was 447 mg/kg; in data set [2] (oral, gavage, TIF: RAIF (SPF)), 305 mg/kg. The LOAEL was more than 100 mg/kg-day in data set [2] (setting [7]), more than 100 mg/kg-day in data set [2] (setting [8]), more than 100 mg/kg-day in data set [2] (setting [9]) and more than 8 mg/m3 in data set [3] (setting [10]). The no observed adverse effect level (NOAEL) was 100 mg/kg-day in data set [2] (setting [7]), 30 mg/kg-day in data set [2] (setting [8]), 30 mg/kg-day in data set [2] (setting [9]) and more than 8 mg/m3 in data set [3] (setting [10]).
`CC(C)(C)c1cc(C(C)(C)c2ccc(O)c(C(C)(C)C)c2)ccc1O` [4,4'-Propane-2,2-diylbis(2-tert-butylphenol)]: the median lethal dose (LD50) in data set [3] (Intraperitoneal) and in data set [3] (intraperitoneal) was 40 mg/kg in each case.
In the case of `CN(C)C(=S)SSC(=S)N(C)C` [Bis(dimethylaminothiocarbonyl) disulfide], the LD50 in data set [1] (acute) was not below 2000 mg/kg; in data set [1] (acute, New Zealand), more than 7940 mg/kg; in data set [2] (dermal), more than 5000 mg/kg; in data set [2] (oral, gavage, Sprague-Dawley), 1080 mg/kg. For the same compound, the NOAEL in data set [1] (reproduction developmental, duration: 14 days, oral, F, New Zealand) is 5 mg/kg-day; in data set [1] (reproduction developmental, duration: 14 days, oral, New Zealand, generation: F1), 5 mg/kg-day; in data set [2] (reproduction developmental, duration: 10 days, oral, gavage, Crl:CD1, generation: F1), 7.5 mg/kg-day; in data set [2] (reproduction developmental, duration: 10 days, oral, gavage, F), more than 30 mg/kg-day; in data set [2] (reproduction developmental, duration: 10 days, oral, gavage, F, Crl:CD1), 7.5 mg/kg-day; in data set [2] (reproduction developmental, duration: 10 days, oral, gavage, generation: F1) it was 7.5 mg/kg-day. Moreover, the NOAEL in data set [2] (reproduction developmental, duration: 81 days, oral, diet, generation: F1) is 60 ppm and 180 ppm; in data set [2] (subchronic, duration: 90 days, oral, diet, F), 2.5 mg/kg-day; in data set [2] (subchronic, duration: 90 days, oral, diet, M), 2.5 mg/kg-day. In data set [2] (inhalation, particle), this compound displayed an LC50 of more than 6.22 µg/mL. This compound displayed an LEL in data set [4] of 15 mg/kg-day. This compound also yielded an NOEL in data set [4] of 5 mg/kg-day.
Take `Cc1cc(C)cc(O)c1` [3,5-Dimethylphenol]: the LC50 in data set [1] (acute, oral) is 1310 mg/kg; in data set [2] (oral), 608 mg/kg; in data set [3] (oral), 477 mg/kg.
Consider `Clc1ccccn1` [2-Chloropyridine], for which the LD50 was less than 200 mg/kg in data set [1] (acute) and 342 mg/kg in data set [2] (oral, gavage).
Regarding `CC(CO)CO` [2-Methylpropane-1,3-diol], the LD50 in data set [1] (acute, New Zealand) is more than 2000 mg/kg; in data set [2] (oral, gavage, Wistar), more than 5000 mg/kg. For the same compound, the NOAEL in data set [1] (reproduction developmental, duration: 28 days, oral, F, New Zealand) amounted to 1000 mg/kg-day; in data set [1] (reproduction developmental, duration: 28 days, oral, New Zealand, generation: F1), 1000 mg/kg-day; in data set [2] (developmental, duration: 20 days, oral, gavage, Wistar), 1000 mg/kg-day; in data set [2] (reproduction developmental, duration: 20 days, oral, gavage, F, Wistar) it was 1000 mg/kg-day; in data set [2] (reproduction developmental, duration: 20 days, oral, gavage, Wistar, generation: F1), 1000 mg/kg-day; in data set [2] (reproduction developmental, duration: 90 days, oral, gavage, Wistar, generation: F0), 1000 mg/kg-day. For the same compound, the no observed adverse effect level (NOAEL) in data set [2] (short-term, duration: 14 days, oral, gavage, Wistar) stood at 1000 mg/kg-day; in data set [2] (subchronic, duration: 90 days, oral, gavage, Wistar), 1000 mg/kg-day. Moreover, the LC50 in data set [2] (Inhalation, Wistar) was more than 5100 mg/m3.
